Measured values as given in ChEMBL document CHEMBL4725259 (Bioorg Med Chem, 2020).
The source made the active and inactive calls. The rule behind the calls is not given here.

Legend:
[1] = target: T1, Follicle-stimulating hormone receptor (Homo sapiens) (UniProt P23945); assay: Antagonist activity at human FSHR expressed in CHO-K1 cells at 20 uM by PathHunter beta-arrestin assay relative to control; assay type: cell-based; conditions: filed as antagonist
T1 sequence (whole entry): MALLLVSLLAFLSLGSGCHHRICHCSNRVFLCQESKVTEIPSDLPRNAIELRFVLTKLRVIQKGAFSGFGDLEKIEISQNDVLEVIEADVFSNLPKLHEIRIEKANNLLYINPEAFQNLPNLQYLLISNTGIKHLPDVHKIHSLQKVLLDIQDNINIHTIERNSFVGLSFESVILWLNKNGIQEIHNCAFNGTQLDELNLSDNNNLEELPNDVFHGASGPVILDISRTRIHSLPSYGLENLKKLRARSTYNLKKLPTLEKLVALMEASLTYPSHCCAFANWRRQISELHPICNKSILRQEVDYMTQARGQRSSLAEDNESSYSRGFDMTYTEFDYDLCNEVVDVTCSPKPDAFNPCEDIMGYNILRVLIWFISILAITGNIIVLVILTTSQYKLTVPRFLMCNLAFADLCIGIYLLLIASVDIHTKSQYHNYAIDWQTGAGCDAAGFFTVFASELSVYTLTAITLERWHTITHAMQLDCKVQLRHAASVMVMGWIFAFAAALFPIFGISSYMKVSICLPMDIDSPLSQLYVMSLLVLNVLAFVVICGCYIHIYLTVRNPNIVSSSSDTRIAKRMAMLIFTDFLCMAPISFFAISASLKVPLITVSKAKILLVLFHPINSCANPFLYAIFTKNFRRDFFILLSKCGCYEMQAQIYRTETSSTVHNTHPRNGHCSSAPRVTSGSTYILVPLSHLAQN

[2] = target: D(2) dopamine receptor (Homo sapiens) (UniProt P14416); assay: Agonist activity at human DRD2L expressed in CHO-K1 cells at 20 uM by PathHunter beta-arrestin assay relative to control; assay type: cell-based
U2OS = assay: Agonist activity at NPSR1B in human U2OS cells at 20 uM by PathHunter beta-arrestin assay relative to control; assay type: cell-based
[3] = target: T2, C-X-C chemokine receptor type 4 (Homo sapiens, UniProt P61073); assay: Antagonist activity at human CXCR4 expressed in mouse C2C12 cells at 20 uM by PathHunter beta-arrestin assay relative to control; assay type: cell-based; conditions: filed as antagonist
[4] = target: T1, Follicle-stimulating hormone receptor (Homo sapiens); assay: Agonist activity at human FSHR expressed in CHO-K1 cells at 20 uM by PathHunter beta-arrestin assay relative to control; assay type: cell-based
[5] = target: T3, Oxytocin receptor (Homo sapiens) (UniProt P30559); assay: Antagonist activity at human OXTR expressed in CHO-K1 cells at 20 uM by PathHunter beta-arrestin assay relative to control; assay type: cell-based; conditions: filed as antagonist
T3 sequence (whole entry): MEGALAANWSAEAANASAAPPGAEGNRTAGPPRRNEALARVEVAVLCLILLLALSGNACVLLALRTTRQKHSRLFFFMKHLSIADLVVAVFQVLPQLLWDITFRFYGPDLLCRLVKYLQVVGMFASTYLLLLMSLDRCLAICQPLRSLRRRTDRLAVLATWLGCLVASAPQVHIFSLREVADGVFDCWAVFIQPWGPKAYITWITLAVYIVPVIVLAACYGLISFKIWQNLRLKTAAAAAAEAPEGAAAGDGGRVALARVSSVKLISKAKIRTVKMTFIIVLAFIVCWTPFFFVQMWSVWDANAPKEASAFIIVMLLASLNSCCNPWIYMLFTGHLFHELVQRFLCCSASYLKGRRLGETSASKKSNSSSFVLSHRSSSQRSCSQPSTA

[6] = target: T4, C-C chemokine receptor type 3 (Homo sapiens) (UniProt P51677); assay: Agonist activity at human CCR3 expressed in CHO-K1 cells at 20 uM by PathHunter beta-arrestin assay relative to control; assay type: cell-based
T4 sequence (whole entry): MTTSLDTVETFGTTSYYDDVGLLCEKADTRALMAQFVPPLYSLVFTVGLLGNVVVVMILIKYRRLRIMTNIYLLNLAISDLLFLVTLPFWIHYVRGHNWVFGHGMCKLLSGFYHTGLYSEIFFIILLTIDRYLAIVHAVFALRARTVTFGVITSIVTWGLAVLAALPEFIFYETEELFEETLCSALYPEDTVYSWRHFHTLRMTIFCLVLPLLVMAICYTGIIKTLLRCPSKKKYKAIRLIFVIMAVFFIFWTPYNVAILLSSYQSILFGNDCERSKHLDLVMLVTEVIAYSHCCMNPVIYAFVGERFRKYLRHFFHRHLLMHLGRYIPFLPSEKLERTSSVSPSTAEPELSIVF

[7] = target: T5, Prolactin-releasing peptide receptor (Homo sapiens) (UniProt P49683); assay: Agonist activity at human PRLHR expressed in CHO-K1 cells at 20 uM by PathHunter beta-arrestin assay relative to control; assay type: cell-based
T5 sequence (whole entry): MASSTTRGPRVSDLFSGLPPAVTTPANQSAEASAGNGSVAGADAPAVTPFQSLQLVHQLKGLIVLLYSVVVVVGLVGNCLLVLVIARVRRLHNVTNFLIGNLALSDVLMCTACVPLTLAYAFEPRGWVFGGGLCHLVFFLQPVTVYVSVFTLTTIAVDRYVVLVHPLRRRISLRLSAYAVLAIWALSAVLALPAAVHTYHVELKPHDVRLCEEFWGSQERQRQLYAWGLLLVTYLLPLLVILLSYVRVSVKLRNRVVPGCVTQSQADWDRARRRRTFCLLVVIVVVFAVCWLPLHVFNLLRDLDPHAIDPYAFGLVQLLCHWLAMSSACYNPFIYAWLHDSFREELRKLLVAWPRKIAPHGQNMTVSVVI

[8] = target: T2, C-X-C chemokine receptor type 4; assay: Agonist activity at human CXCR4 expressed in mouse C2C12 cells at 20 uM by PathHunter beta-arrestin assay relative to control; assay type: cell-based
Vasopressin V2 receptor = Vasopressin V2 receptor (Homo sapiens, UniProt P30518); assay: Agonist activity at human AVPR2 at 20 uM by PathHunter beta-arrestin assay relative to control
[9] = target: T6, CX3C chemokine receptor 1 (Homo sapiens) (UniProt P49238); assay: Agonist activity at human CX3CR1 expressed in CHO-K1 cells at 20 uM by PathHunter beta-arrestin assay relative to control; assay type: cell-based
T6 sequence (whole entry): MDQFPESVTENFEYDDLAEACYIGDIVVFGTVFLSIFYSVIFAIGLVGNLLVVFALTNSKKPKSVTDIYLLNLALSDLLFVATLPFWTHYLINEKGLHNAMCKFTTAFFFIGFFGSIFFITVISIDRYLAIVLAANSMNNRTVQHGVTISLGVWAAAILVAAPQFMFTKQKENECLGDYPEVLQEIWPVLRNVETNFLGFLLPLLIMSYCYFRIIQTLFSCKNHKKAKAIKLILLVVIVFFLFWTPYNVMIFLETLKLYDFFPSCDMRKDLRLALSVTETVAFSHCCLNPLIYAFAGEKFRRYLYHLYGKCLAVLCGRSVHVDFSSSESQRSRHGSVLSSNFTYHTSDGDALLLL

[10] = target: C-C chemokine receptor type 8 (Homo sapiens, UniProt P51685); assay: Agonist activity at human CCR8 expressed in CHO-K1 cells at 20 uM by PathHunter beta-arrestin assay relative to control; assay type: cell-based
C-C chemokine receptor type 8, sequence (P51685 whole entry): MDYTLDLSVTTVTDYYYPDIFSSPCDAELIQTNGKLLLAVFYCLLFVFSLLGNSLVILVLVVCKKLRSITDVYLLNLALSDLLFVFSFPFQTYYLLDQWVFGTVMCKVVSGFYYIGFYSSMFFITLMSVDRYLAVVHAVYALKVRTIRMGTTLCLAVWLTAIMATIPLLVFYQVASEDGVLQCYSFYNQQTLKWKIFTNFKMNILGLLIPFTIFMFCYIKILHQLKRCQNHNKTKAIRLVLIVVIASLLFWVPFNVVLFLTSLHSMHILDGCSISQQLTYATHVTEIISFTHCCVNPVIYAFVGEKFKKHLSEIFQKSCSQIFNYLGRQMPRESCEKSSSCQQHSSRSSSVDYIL

T2 sequence (P61073 whole entry): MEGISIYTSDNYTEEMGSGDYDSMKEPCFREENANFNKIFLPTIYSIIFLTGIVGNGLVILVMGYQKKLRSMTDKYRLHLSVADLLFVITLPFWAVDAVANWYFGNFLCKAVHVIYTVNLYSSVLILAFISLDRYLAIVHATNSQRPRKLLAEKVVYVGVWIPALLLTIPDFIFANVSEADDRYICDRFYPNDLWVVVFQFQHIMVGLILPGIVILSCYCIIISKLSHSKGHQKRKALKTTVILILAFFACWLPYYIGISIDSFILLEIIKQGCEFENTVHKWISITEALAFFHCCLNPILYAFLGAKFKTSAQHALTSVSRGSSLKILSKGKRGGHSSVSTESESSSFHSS
D(2) dopamine receptor (Homo sapiens), sequence (P14416 whole entry): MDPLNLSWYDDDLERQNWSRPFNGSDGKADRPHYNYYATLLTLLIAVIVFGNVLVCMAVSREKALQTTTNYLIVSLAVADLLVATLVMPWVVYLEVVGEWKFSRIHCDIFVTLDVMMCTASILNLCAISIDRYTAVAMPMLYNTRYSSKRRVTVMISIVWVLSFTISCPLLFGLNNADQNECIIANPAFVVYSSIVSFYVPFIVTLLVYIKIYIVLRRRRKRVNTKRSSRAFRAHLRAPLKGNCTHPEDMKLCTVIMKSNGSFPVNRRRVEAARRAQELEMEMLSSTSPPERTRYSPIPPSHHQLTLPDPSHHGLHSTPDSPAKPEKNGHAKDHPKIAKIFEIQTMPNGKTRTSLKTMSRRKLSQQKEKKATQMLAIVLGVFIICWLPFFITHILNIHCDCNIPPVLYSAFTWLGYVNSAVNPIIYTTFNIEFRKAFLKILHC
Vasopressin V2 receptor, sequence (P30518 whole entry): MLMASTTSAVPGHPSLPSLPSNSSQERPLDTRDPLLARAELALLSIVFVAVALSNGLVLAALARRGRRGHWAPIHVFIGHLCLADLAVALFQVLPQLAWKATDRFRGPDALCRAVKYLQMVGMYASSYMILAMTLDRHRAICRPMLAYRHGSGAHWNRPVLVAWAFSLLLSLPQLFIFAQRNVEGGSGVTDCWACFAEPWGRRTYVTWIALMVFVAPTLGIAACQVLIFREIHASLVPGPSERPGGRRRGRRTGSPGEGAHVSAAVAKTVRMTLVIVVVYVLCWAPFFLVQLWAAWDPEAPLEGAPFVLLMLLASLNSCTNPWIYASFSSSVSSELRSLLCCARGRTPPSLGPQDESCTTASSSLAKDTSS

Row | inhibition [1] [%] | Activity [2] | inhibition [3] [%] | Activity [4] | inhibition [5] [%] | Activity [6] | Activity [7] | Activity [8] | Activity (Vasopressin V2 receptor) | Activity [9] | Activity [10] | Structure (SMILES) | Activity (U2OS)
1 | 51 | inactive | 125 | inactive | 9 | inactive | inactive | inactive | inactive | inactive | inactive | COC(=O)[C@@H]1[C@H]2C[C@@H](c3[nH]c4ccccc4c3CCn3cc(-c4cccc(Cl)c4)nn3)N(C#N)C[C@@H]2CC[C@@H]1O | inactive
2 | 56 | inactive | 39 | inactive | 97 | inactive | inactive | inactive | inactive | inactive | inactive | COC(=O)[C@@H]1[C@H]2C[C@@H]3N(CC[C@@]34C(=O)N(Cc3cccc(OC)c3)c3ccccc34)C[C@@H]2CC[C@@H]1OCc1cccc(OC)c1 | inactive
